Data reported in patent US20230045151A1, “COMPOSITIONS AND METHODS” (MONASH UNIVERSITY, priority 2020, published 2023).

How the values were obtained:
[1] = tested on: pulmonary DCs; experiment: DC:T cell co-culture (priming of naive OT-II cells / restimulation of effector Th cells); type: cell-based, mouse; conditions: pulmonary DCs from L-tyrosine-treated mice
Description: Data from a-c are pooled from two experiments (a, b, n=10 biologically independent samples per group; c, n=9 biologically independent samples per group). Data in d represent technical replicates (n=6 left panel, n=5 right panel) from one experiment. Data in e are pooled from 3 independent experiments (n=6 per group). Data in f are pooled from two independent experiments (n=5 biologically independent samples per group). Data in g are pooled from two independent experiments (n=9 biologically independent samples per group). Data in h are pooled from two independent experiments (n=4 biologically independent samples per group). All data are presented as mean values±s.e.m. Statistical significance for a-d, f, g, was evaluated with unpaired Student's t-test (in the case of Gaussian distribution) or Mann-Whitney test (non-Gaussian distribution). Statistical significance for e, h was determined with One-Way analysis of variance (ANOVA) with Dunnett correction for multiple comparisons. Data distribution was assessed with D'Agostino & Pearson normality test. *p≤0.05, **p≤0.01, ***p≤0.001, ****p≤0.0001
DC: T cell co-cultures were set-up by sorting CD11c+ SiglecF− (DCs) and CD4+CD44+ T cells from the lungs of HDM-immunized mice on FACSAria III (BD Biosciences™, San Jose, Calif.). […]

[2] = tested on: C57BL6/J mice exposed intranasally to house dust mite extract (HDM); experiment: HDM animal model of allergic airway inflammation; type: in vivo, mouse
Method: Mice received water as a control or L-tyrosine (reagent grade, ≥98% Sigma-Aldrich, St. Louis, Mo.) resuspended in drinking water under sterile conditions at the concentration of 100 mg/kg/day or 500 mg/kg/day (based on the assumption of a mouse consuming 4 ml of water daily). All mice received the treatment 2 weeks prior and throughout the experiment. […] Control mice received 200 μl of saline. […]. For experiments employing antibiotic treatment, 3-week old mice were treated with a combination enrofloxacin (10 mg/kg/day) and amoxicillin with clavulanic acid (1 mg/kg/day) for one week, followed by one week of only amoxicillin with clavulanic acid (1 mg/kg/day). Then, mice were then put on L-tyrosine diet in drinking water for two weeks followed by HDM exposure as before. During this time, mice were maintained on antibiotic treatment with amoxicillin/clavulanic acid until end of experiment.
Mice were anaesthetised by the inhalation of 4% isoflurane in oxygen for 3-5 minutes. 20 μg of protein content of crude house dust mite extract (HDM) (Greer Laboratories Inc., Lenoir, N.C.) in 20 μl of sterile phosphate-buffered saline (PBS) (Gibco™) was applied intranasally on days 0, 11, 12 and 13. Mice were humanely sacrificed with the lethal dose of pentobarbital (Streuli Pharma AG, Uznach, Switzerland) on day 14.
Bronchoalveolar lavage fluid (BALF) was collected by flushing airways with 0.5 ml PBS supplemented with 0.2% bovine serum albumin (Sigma-Aldrich, St. Louis, Mo.). Total cell number was determined with Coulter Counter (IG Instrumenten-Gesellschaft AG, Basel, Switzerland) while differential cell staining performed on cytospins stained with Diff-Quik solution (Dade Behring, Siemens Healthcare Diagnostics, Deerfield, Ill.). Percentages of neutrophils, macrophages, lymphocytes and eosinophils were assessed by counting 200 cells per sample.
Concentrations of interleukin-4, -5, -13, -17 and IFN-γ in culture supernatants were analysed with mouse Ready-Set-Go!™ ELISA kits (eBioscience™, San Diego, Calif.) according to manufacturer's instructions. To measure the levels of HDM-specific IgG1 and IgE in plasma, half area 96-well plates (Corning) were coated with HDM (10 μg in PBS) overnight at 4° C., followed by the incubation of samples for 2 hours at RT, and the addition of alkaline-phophatase-conjugated goat anti-mouse IgE or IgG1 (both from SouthernBiotech, Birmingham, Ala.; diluted at 1 μg ml-1 in PBS 0.2% BSA) for 2 hours at RT. 4-nitrophenyl phosphate sodium salt hexahydrate (pNPP) (Sigma) was used as a substrate, and the colorimetric reaction was read at 405 nm on the Synergy H1 microplate reader (Biotek, Luzern, Switzerland). To measure the levels of total IgA and IgM as well as hen egg lysozyme (HEL)-specific IgA and IgM in mouse faeces, faecal pellets were homogenized in 0.8 ml cold PBS, centrifuged at 400 g for 5 minutes to remove large debris, filtered through 40 μm cell strainer and centrifuged at 8000 g for 10 minutes to pellet bacteria. The supernatant was collected and loaded for 2 hours at RT on 96-well half area plates coated a day before at 4° C. with anti-IgA (Southern Biotech; 2 μg ml-1), anti-IgM (SouthernBiotech; 2 μg ml-1) or HEL protein (Sigma-Aldrich; 10 μg/ml). This step was followed by the addition of alkalinephophatase-conjugated goat anti-mouse IgA or IgM (both at 1 μg ml-1 in PBS 0.2% BSA) for 2 hours at RT. 4-nitrophenyl phosphate sodium salt hexahydrate (pNPP) (Sigma) was used as a substrate, and the colorimetric reaction was read at 405 nm as before.
Mediastinal lymph nodes were filtered through a 40 μm cell strainer, washed with PBS supplemented with 1% fetal bovine serum and 2 mM EDTA (Invitrogen) (MACS buffer). Lungs were finely cut with scissors, digested with Collagenase IV (Gibco™) in Iscove's modified Dulbecco's medium (IMDM, Gibco™) for 50 min at 37° C. and processed as the lymph nodes.

[3] = L-tyrosine oral in drinking water

N[C@@H](Cc1ccc(O)cc1)C(=O)O [L-tyrosine]
capacity of DCs to restimulate in vivo-primed effector T helper cells into an IL-13-producing subset [1]: impaired
capacity of DCs to prime naive CD4+ T cells into an IL-13-producing subset ([1]; OT-II cells): impaired
FoxP3+ Treg cells in the lungs [2, 3]: not altered
numbers of T helper cells in the lungs [2, 3]: not altered
recruitment of DCs (lungs) [2, 3]: reduced
recruitment of neutrophils (BALF) [2, 3]: reduced
recruitment of eosinophils (BALF) ([2]; L-tyrosine oral in drinking water, 2 weeks prior and throughout, vs water): reduced
IL-5 concentrations in culture supernatants of mediastinal LNs ([2]; L-tyrosine oral in drinking water, not reaching statistical significance): trend towards a decrease
production of IL-13 by restimulated mediastinal LNs ([2]; L-tyrosine oral in drinking water, restimulated with HDM for 4 days): reduced
protective effect of L-tyrosine under antibiotic treatment (eosinophils, DCs, IL-5 in BALF) ([2]; L-tyrosine oral plus enrofloxacin and amoxicillin/clavulanic acid (microbiota depletion)): abrogated
CCL20 concentrations in the BALF ([2]; L-tyrosine-treated wild-type mice exposed to HDM): reduced
